# Reference: EP2177216A1, “Use of dianhydrohexite mononitrate derivatives as healing agents” (LACER, S.A., priority 2008, dated 2010)
# Tested on: full thickness wound (2 x 2 cm)
# Assay: Wound healing (wound contraction and re-epithelialization) after topical hydrogel application to a full thickness skin wound in rats
# Assay type: in vivo, Male Wistar rats
# Protocol: Male Wistar rats provided by Janvier, Espana weighing 150 - 200 g were housed in our animal facilities in groups of 3 animals, being each group in a conventional animal facility where the environmental temperature and relative humidity are monitored and controlled. The lighting schedule in the animal facility is 12 hours light and 12 hours dark. The rats were used after an acclimatization period of five days. After a week quarantine period animals were dosed.
# The solutions were allowed to attain dissolution equilibrium for a period of 8 h. The appropriate amount of compound of formula (I) was added to the hydrogel solution for homogenization. […] The hydrogels were used immediately after preparation.
# Rats were anesthetized with sodium pentobarbital (40 mg/kg, i.p.) before treatments application to keep the animal calm to allow absorption of the products.
# The dorsal surface was shaved and a full thickness wound (2 x 2 cm) was made on the back of each rat by removing the skin (epidermis and dermis) and exposing paniculus carnosus.
# Groups of 5 rats for treatment were used, and 0.5 g of hydrogel was topically applied in a wound (2 x 2 cm) on the back of each rat.
# Treatments were applied from the first day until fourth day after wounding. […] From the fifth day post-wounding, lesions were left uncovered in all groups. The animals were housed in individual cages with free access to food and water. […]
# The area of the wounds (cm^2) and % re-ephitelización were estimated by the difference between the total lesion area and the wound area still uncovered.
# The efficacy of treatments was evaluated by measuring wound area and percentage of re-epithelialization vs total wound area.
# [1] = day 5, 0.5 g of hydrogel topically applied from first until fourth day after wounding, groups of 5 rats
# [2] = day 8, 0.5 g of hydrogel topically applied from first until fourth day after wounding, initial wound 2 x 2 cm
# [3] = versus control hydrogel, from wound area at day 8
Compound,% Re-epithelialization (day 5) [1] [%],Wound area (cm^2) (day 8) [2],% Wound reduction vs control [3] [%],"% Re-epithelialization (day 5) (rat, in vivo) [%]","% Wound reduction vs control (rat, in vivo) [%]","Wound area (cm^2) (day 8) (rat, in vivo)"
"CC(=O)S[C@H]1CO[C@H]2[C@@H]1OC[C@H]2O[N+](=O)[O-] [Compound 1, 2-acetylthioisosorbide 5-mononitrate]",100,1.2,66,–,–,–
"CC(=O)S[C@@H]1CO[C@H]2[C@@H]1OC[C@H]2O[N+](=O)[O-] [Compound 2, 2-acetylthioisomanide 5-mononitrate]",100,1.4,60,–,–,–
"O=[N+]([O-])O[C@@H]1CO[C@H]2[C@@H]1OC[C@@H]2SS[C@H]1CO[C@H]2[C@@H]1OC[C@H]2O[N+](=O)[O-] [Compound 3, 5'5'-dinitrato-2,2'ditioisosorbide]",100,1.7,51,–,–,–
"CS[C@H]1CO[C@H]2[C@@H]1OC[C@H]2O[N+](=O)[O-] [Compound 4, 2-Methylthioisosorbide 5-mononitrate]",100,1.1,69,–,–,–
"CS(=O)(=O)[C@H]1CO[C@H]2[C@@H]1OC[C@H]2O[N+](=O)[O-] [Compound 5, 2-Methylsulfonylisosorbide 5-mononitrate]",90,1.7,51,–,–,–
"CCC[S+]([O-])[C@H]1CO[C@H]2[C@@H]1OC[C@H]2O[N+](=O)[O-] (stereo partly drawn) [Compound 6, 2-[(R,S)-propylsulfinyl]isosorbide 5-mononitrate]",90,1.1,69,–,–,–
"O=[N+]([O-])O[C@@H]1CO[C@H]2[C@@H]1OC[C@@H]2O [Compound 7, Isosorbide 5-mononitrate, reference compound]",–,–,–,60,60,1.4
